Reference: paper PMC8409943, “Study on mechanism of low bioavailability of black tea theaflavins by using Caco-2 cell monolayer” (Drug Delivery, 2021)

Legend:
MRP1 = experiment: Quantitative real-time PCR, mRNA level of MRP1; format: cell-based, Human; details: Caco-2 cells, 200 μM, 2 h, vs control
Protocol: (§1) Cell culture and treatment were performed as described above in 2.6. Total RNA was extracted from Caco-2 cells by the cell RNA extraction kit, and then reverse-transcribed by the cDNA synthesis kit. Gene amplification and quantitative detection were performed as previously described (Ai et al., [2019]). Target mRNA levels were normalized to β-actin mRNA levels. Data were calculated by the 2^−ΔΔCT method.

MRP3 = experiment: Quantitative real-time PCR, mRNA level of MRP3; format: cell-based, Human; details: Caco-2 cells, 200 μM, 2 h, vs control
Protocol: as §1

P-gp [1] = experiment: Quantitative real-time PCR, mRNA level of P-gp; format: cell-based, Human; details: Caco-2 cells, 200 μM, 2 h, vs control
Protocol: as §1

P-gp [2] = experiment: Western blot, protein level of P-gp; format: cell-based, Human; details: Caco-2 cells, 200 μM, 2 h, normalized to β-actin, vs control
Protocol: Cell lysates were prepared with RIPA lysis buffer. […] Cell protein (50 μg) was loaded onto SDS polyacrylamide gel (5% stacking gel; 8% separating gel) and separated by electrophoresis for 1.5 h at 20 mA. Next, the separated proteins were transferred onto the PVDF membrane in ice bath for 1.5 h at 120 mA, followed by blocking the membrane with 5% nonfat milk in Tris-buffered saline containing 0.1% Tween-20 (TBST) for 1 h at room temperature. After blocking, the blots were incubated overnight at 4 °C with the primary antibody of P-gp, MRP1, MRP2, MRP3, BCRP (1:200) or β-actin (1:40,000), followed by washing with TBST and incubation for 1 h at room temperature with HRP-conjugated goat anti-rabbit (1:3,000). Immunoreactive proteins were visualized by the ECL detection system, band intensity was quantified by Image Lab (Bio-Rad, CA, USA), and the protein contents were normalized to β-actin.

Caco-2 cells = experiment: Intracellular accumulation of theaflavin monomers; details: 200 μM theaflavins, 2 h incubation, 37 °C
Protocol: Caco-2 cells were seeded at a density of 8 × 10^4 cells per well in 6-well plates (Ni et al., [2020]). After differentiation over a period of 21 days, cells were incubated with 2.0 mL of 200 μM theaflavins at 37 °C. After 2 h incubation, phosphate buffer was added to wash cells in the plate. Then, cell lysates were prepared with RIPA lysis buffer containing 1 mM PMSF as a protease inhibitor and centrifugated at 12,000 rpm for 30 min. Total protein contents were quantified using a BCA estimation kit according to the manufacturer’s instructions (Beyotime). Theaflavins were quantified by HPLC analysis and the intracellular accumulation was expressed as µg theaflavin/mg protein.
Theaflavins were characterized by high performance liquid chromatography (HPLC, Agilent 1100VL, Agilent Technologies Inc., CA, USA). Briefly, samples were extracted with 70% methanol, centrifuged at 685 × g for 10 min, and filtered through a 0.45 μm membrane (Nylon 66). […] Samples were eluted with a gradient of solvent A (100 mL water with 9 mL acetonitrile and 2 mL acetic acid) and B (100 mL acetonitrile with 17.8 mL water and 2 mL acetic acid) as follows: 0–5 min, 95% A; 5–10 min, 90% A; 10–20 min, 70% A; 20–25 min, 65% A; 25–30 min, 70% A; 30–35 min, 100% A. Theaflavins were detected using an ultraviolet detector at a wavelength of 278 nm.

[3] = 2 h, 200 μM
Protocol: Standard stock solutions of each theaflavin were diluted with HBSS and DMEM respectively, obtaining final test solutions of 200 μM. The recovery rate of theaflavins in HBSS and in DMEM, in the absence of cells, was analyzed by HPLC after incubation at 37 °C for 0.5, 1, 2, 3, 4, 8, 12, and 24 hours, respectively. The recovery rate was used to measure the stability and calculated as follows: (2) Recovery rate=Ct/C0× 100% where Ct is the final concentration at different incubation time (μM); C0, the initial concentration (μM).
Theaflavins were characterized by high performance liquid chromatography (HPLC, Agilent 1100VL, Agilent Technologies Inc., CA, USA). Briefly, samples were extracted with 70% methanol, centrifuged at 685 × g for 10 min, and filtered through a 0.45 μm membrane (Nylon 66). The separation was performed by an ODS reversed-phase column (4.6 mm i.d.×250 mm, SB-C18, Agilent Technologies Inc., CA, USA) at a flow rate of 0.7 mL/min. Chromatographic conditions were slightly modified according to China National Standard (GB/T 30483-2013, GAQSIQ, P. R. China, 2013). Samples were eluted with a gradient of solvent A (100 mL water with 9 mL acetonitrile and 2 mL acetic acid) and B (100 mL acetonitrile with 17.8 mL water and 2 mL acetic acid) as follows: 0–5 min, 95% A; 5–10 min, 90% A; 10–20 min, 70% A; 20–25 min, 65% A; 25–30 min, 70% A; 30–35 min, 100% A. Theaflavins were detected using an ultraviolet detector at a wavelength of 278 nm.

[4] = design: method as in Henning et al., 2006; details: mice treated with decaffeinated black tea (50 mg/g diet) for two weeks; ref Henning et al., 2006; cited from earlier work
BCRP = experiment: Quantitative real-time PCR, mRNA level of BCRP; format: cell-based, Human; details: Caco-2 cells, 200 μM, 2 h, vs control
Protocol: as §1

O=C(O[C@@H]1Cc2c(O)cc(O)cc2O[C@@H]1c1cc(O)c(=O)c2c(O)c(O)cc([C@H]3Oc4cc(O)cc(O)c4C[C@H]3O)c2c1)c1cc(O)c(O)c(O)c1 [TF3G, theaflavin-3-gallate]
increase of mRNA level of MRP1 (MRP1): 154.97%
increase of mRNA level of MRP3 (MRP3): 34.01%
increase of mRNA level of P-gp (P-gp [1]): 44.45%
increase of protein level of P-gp (P-gp [2]): 23.94%

O=C(O[C@@H]1Cc2c(O)cc(O)cc2O[C@@H]1c1cc(O)c(O)c2c(=O)c(O)cc([C@H]3Oc4cc(O)cc(O)c4C[C@H]3O)cc12)c1cc(O)c(O)c(O)c1 [TF3’G, theaflavin-3’-gallate]
Contents of theaflavins absorbed in Caco-2 cells (Caco-2 cells): -

O=C(O[C@@H]1Cc2c(O)cc(O)cc2O[C@@H]1c1cc(O)c(=O)c2c(O)c(O)cc([C@H]3Oc4cc(O)cc(O)c4C[C@H]3OC(=O)c3cc(O)c(O)c(O)c3)c2c1)c1cc(O)c(O)c(O)c1 [TFDG, theaflavin-3, 3’-digallate]
degraded due to the structural instability [3]: 11.6%
amount in tissue samples [4]: less than 1 nmol/g tissue
increase of mRNA level of BCRP (BCRP): 35.49%
